From PMC9499525, “Tissue-restricted inhibition of mTOR using chemical genetics” (Proceedings of the National Academy of Sciences of the …, 2022)

Key:
[1] = Bidirectional Caco-2 cell permeability; format: in vitro ADME; details: human, LC-MS
Protocol: PAMPA and Caco-2 membrane permeability assays […]
MS) after 5 hours. Bidirectional Caco-2 cell permeability assay was performed by Quintara
Discovery. Compounds were analyzed at 10 µM and measured by LC-MS after 1 hour.

[2] = PAMPA membrane permeability; format: in vitro ADME; details: 100 µM in PBS, LC-MS
Protocol: PAMPA and Caco-2 membrane permeability assays
PAMPA was performed by Quintara Discovery as described previously (2). Compounds were
analyzed at 100 µM in PBS and measured using liquid chromatography-mass spectrometry (LC-

[3] = target: T1, FKBP12-HA (wild-type) / GST-mTOR FRB domain ternary complex (Homo sapiens, UniProt P42345+P62942); assay: TR-FRET ternary complex formation, wild-type FKBP12 with mTOR FRB; format: binding
T1 construct: recombinant HA-tagged wild-type or V55G mutant FKBP12 with GST-tagged mTOR FRB domain; 8xHis (cleaved yes); made in house; host or cells: E. coli BL21 (DE3) for FKBP12
Protocol: TR-FRET assay was performed using recommended conditions from Cisbio with slight modifications. FKBP12-HA, FKBP12 V55G-HA, and GST-mTORFRB recombinant proteins were each diluted to 5 nM in assay buffer (20 mM HEPES pH 7.5, 150 mM NaCl, 0.05% Tween-20, 0.1% bovine serum albumin [BSA], 0.5 mM dithiothreitol [DTT]). Anti-GST-Tb (Cisbio) and Anti-HA-XL665 (Cisbio) were diluted to 0.625 µg/mL and 5 µg/mL, respectively, in assay buffer. Rapa* compounds and FK506 were diluted to 50 µM and rapamycin to 5 µM in assay buffer containing 5% DMSO, and threefold serial dilution series were made from these solutions. […] Time-resolved fluorescence was read on a Tecan Spark 20M plate reader with the following parameters: Lag time: 60 µs; Integration time: 500 µs; Read A: Excitation filter 320 ([25]) nm, Emission filter 610 ([25]) nm, Gain 130; Read B: Excitation filter 320 ([25]) nm, Emission filter 665 ([8]) nm, Gain 165. […]
Human FKBP12 coding sequence was cloned a pET-47b bacterial expression vector using Gibson assembly and a C-terminal HA-tag was added by QuickChange PCR. FKBP12 proteins were expressed as 8xHis fusions in E. coli BL21 (DE3) cells. […]
PAMPA was performed by Quintara Discovery as described previously (2). Compounds were analyzed at 100 µM in PBS and measured using liquid chromatography-mass spectrometry (LC-MS) after 5 hours. […]

[4] = target: T2, FKBP12 V55G-HA / GST-mTOR FRB domain ternary complex (Homo sapiens, UniProt P42345+P62942, V56G); assay: TR-FRET ternary complex formation, FKBP12 V55G with mTOR FRB; format: binding
T2 construct: recombinant HA-tagged wild-type or V55G mutant FKBP12 with GST-tagged mTOR FRB domain; 8xHis (cleaved yes); made in house; host or cells: E. coli BL21 (DE3) for FKBP12
Protocol: TR-FRET assay was performed using recommended conditions from Cisbio with slight modifications. FKBP12-HA, FKBP12 V55G-HA, and GST-mTORFRB recombinant proteins were each diluted to 5 nM in assay buffer (20 mM HEPES pH 7.5, 150 mM NaCl, 0.05% Tween-20, 0.1% bovine serum albumin [BSA], 0.5 mM dithiothreitol [DTT]). Anti-GST-Tb (Cisbio) and Anti-HA-XL665 (Cisbio) were diluted to 0.625 µg/mL and 5 µg/mL, respectively, in assay buffer. Rapa* compounds and FK506 were diluted to 50 µM and rapamycin to 5 µM in assay buffer containing 5% DMSO, and threefold serial dilution series were made from these solutions. We mixed 4 µL diluted FKBP12-HA protein, 4 µL diluted GST-mTORFRB, and 4 µL of compound or DMSO control in a well of a black low-volume 384-well plate (Corning 4514), and the mixture was incubated at room temperature for 1 h. We then added 4 µL of Anti-GST-Tb, and 4 µL Anti-HA-XL665, and the mixture was incubated at room temperature for an additional 1 h. Time-resolved fluorescence was read on a Tecan Spark 20M plate reader with the following parameters: Lag time: 60 µs; Integration time: 500 µs; Read A: Excitation filter 320 ([25]) nm, Emission filter 610 ([25]) nm, Gain 130; Read B: Excitation filter 320 ([25]) nm, Emission filter 665 ([8]) nm, Gain 165. Three replicates were performed for each assay condition. […]
Human FKBP12 coding sequence was cloned a pET-47b bacterial expression vector using Gibson assembly and a C-terminal HA-tag was added by QuickChange PCR. FKBP12 proteins were expressed as 8xHis fusions in E. coli BL21 (DE3) cells. […] Samples were then purified by size exclusion chromatography, concentrated to 10-20 mg/mL, and snap frozen in liquid nitrogen. pGEX-2T FRB was a gift from Jie Chen (Addgene plasmid #26607). mTOR FRB was expressed as a GST-fusion and purified as previously described (1). […]
PAMPA was performed by Quintara Discovery as described previously (2). Compounds were analyzed at 100 µM in PBS and measured using liquid chromatography-mass spectrometry (LC-MS) after 5 hours. […] Compounds were analyzed at 10 µM and measured by LC-MS after 1 hour.

[5] = system: Flp-In 293 cells with and without FKBP12 V55G-HA; assay: Cell growth by CellTiter-Glo in Flp-In 293 cells; format: cell-based, human; details: 72 h treatment
Protocol: All cell lines were maintained in DMEM (Gibco) supplemented with 10% heat-inactivated FBS (Axenia Biologix) at 37 °C in 5% CO2. Flp-In T-REx 293 cells were obtained from Thermo Fisher supplemented with 15 µg/mL blasticin and 100 µg/mL Zeocin. […] When indicated, cells were treated with drugs at 60–80% confluency at a final DMSO concentration of 0.1%.
Cells were seeded into 96-well tissue-culture treated plates (Greiner) and were allowed to incubate for 24 h. Cells were treated with indicated compounds and incubated for 72 h (100 µL final well volume, 0.1% DMSO). Cell viability was assessed by CellTiter-Glo (Promega). Assay reagent was diluted 1:4 in PBS containing 1% Triton X-100, and 100 µL was added to each well and mixed on a plate shaker for 20 min. Luminescence was measured on a Tecan Spark 20M.

[6] = system: S. cerevisiae BY4741 fpr1-KO expressing human FKBP12 variants; assay: Yeast disk diffusion growth inhibition assay; format: cell-based, Saccharomyces cerevisiae; details: 100 µM on disk, 3 d
Excerpt: BY4741 fpr1::URA3 yeast were generated by homologous recombination, selected on Ura- synthetic complete medium and subsequently grown in yeast extract-peptone-dextrose (YPD) medium ([46]). Human FKBP12 coding sequence was cloned via Gibson assembly into a pCH043 yeast expression vector, which had been previously modified with an HIS3 selection open reading frame (ORF). The C-terminal HA-tag and F46/V55 mutations were introduced by site-directed mutagenesis PCR. Plasmids were transformed into the BY4741 fpr1::URA3 strain and selected on His- synthetic complete medium. Isolated strains were verified by plasmid sequencing. To prepare yeast protein lysates, 2 optical density (OD) equivalents from an overnight culture was resuspended in 200 µl 0.1 M NaOH and incubated at room temperature for 15 min. Cells were pelleted, resuspended in 50 µL 2x SDS loading dye, and heated at 95 °C for 5 min. Following centrifugation at 20,000 × g for 10 min, supernatant was saved for analysis.
Yeast strains containing FKBP12-expression vectors were shaken overnight at 30 °C in 3 mL His- synthetic complete media. 0.1 OD of culture was spun down, resuspended in 1 mL sterile water, and 100 µL was spread on His-synthetic media containing galactose/raffinose to induce protein expression. Plates were incubated at 30 °C for 1 h to dry. Filter paper circles were prepared with a hole punch, placed on the plate, and 5 µL of DMSO, 100 µM rapamycin, or 100 µM Rapa* compound was pipetted onto the filter paper. Plates were incubated at 30 °C for 3 d before zones of growth inhibition were measured.

[7] = system: Drosophila larvae (w1118 control and FKBP12 V55G transgenic); assay: Drosophila larval development (pupae 9 d after egg laying); format: in vivo
Protocol: All Drosophila stocks and crosses were maintained on standard cornmeal-molasses food at 25 °C using a 12-h light/dark cycle. To generate UAS-FKBP12 V55G-HA transgenic lines, human FKBP12 V55G-HA ORF was cloned into a pUAST-attB vector between EcoR-I and Xho-I restriction sites. This construct was then integrated into an attB site using phiC31 integrase with the assistance of Rainbow Transgenic Flies, Inc. The driver stocks da-GAL4 (ubiquitous), elav-GAL4 and nSyb-GAL4 (neuronal-specific), Mef2-GAL4 and mhc-GAL4 (musculature), and 2–286-GAL4 and phm-GAL4 (ring-gland-specific) were obtained from Bloomington Drosophila Stock Center. The crossing schemes used in this study are depicted in SI Appendix, Fig. S11. For rapamycin or Rapa*3Z related experiments, fly food was prepared freshly 24 h before each experiment.
Fly food containing ethanol vehicle was used as control. […] Three biological replicates were used for each experiment. Data were analyzed using Prism 9.0 (GraphPad).

T2 sequence (P62942 whole entry V56G, the tested form may be a part): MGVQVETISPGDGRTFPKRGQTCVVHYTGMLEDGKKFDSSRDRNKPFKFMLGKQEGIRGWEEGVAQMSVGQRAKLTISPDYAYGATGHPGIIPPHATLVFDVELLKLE
T2 sequence (P42345 2012-2144 limits assumed): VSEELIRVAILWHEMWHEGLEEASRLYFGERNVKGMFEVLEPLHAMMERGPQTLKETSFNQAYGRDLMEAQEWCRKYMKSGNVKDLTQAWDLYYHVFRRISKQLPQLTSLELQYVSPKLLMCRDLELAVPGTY
T1 sequence (P62942 whole entry, the tested form may be a part): as the sequence (P62942 whole entry V56G, the tested form may be a part) above, with G56V counted along it
T1 sequence (P42345 2012-2144 limits assumed): as the sequence (P42345 2012-2144 limits assumed) above

Row | Structure (SMILES) | Papp A→B at 1 h, 10 µM [1] | Papp B→A at 1 h, 10 µM [1] | Papp at 5 h, 100 µM [2] | Ternary complex induction (in words), wild-type FKBP12 [3] | Ternary complex induction (in words), FKBP12 V55G [4] | Cell growth inhibition, 293 cells with and without FKBP12 V55G [5] | Growth inhibition of yeast, fpr1-KO with empty vector [6] | Growth inhibition of yeast expressing wild-type human FKBP12 ([6]; fpr1-KO + human FKBP12) | Growth inhibition of yeast expressing FKBP12 F46/V55 mutants ([6]; mutant strains) | Effect on larval development in wild-type animals ([7]; wild-type (w1118) larvae, compound in food) | Dose required for complete inhibition of larval development ([7]; wild-type flies (w1118), in food, 9 d after egg laying) | Selectivity of ternary complex induction, wild-type vs V55G ([4]; FKBP12 vs FKBP12 V55G)
1 | CO[C@H]1C[C@@H]2CC[C@@H](C)[C@@](O)(O2)C(=O)C(=O)N2CCCC[C@H]2C(=O)O[C@H]([C@H](C)C[C@@H]2CC[C@@H](O)[C@H](OC)C2)C/C(=N/O)[C@H](C)/C=C(\C)[C@@H](O)[C@@H](OC)C(=O)[C@H](C)C[C@H](C)/C=C/C=C/C=C/1C [Rapa*-1Z] | < 0.3 ×10⁻⁶ cm/s | 1.6 ×10⁻⁶ cm/s | 0.002 ×10⁻⁶ cm/s |  |  |  |  |  |  |  |  | 
2 | C=CC[C@@H]1/C=C(\C)C[C@H](C)C[C@H](OC)[C@H]2O[C@@](O)(C(=O)C(=O)N3CCCC[C@H]3C(=O)O[C@H](/C(C)=C/[C@@H]3CC[C@@H](O)[C@H](OC)C3)[C@H](C)[C@@H](O)CC1=O)[C@H](C)C[C@@H]2OC [FK506, reference compound] |  |  |  | failed to induce either ternary complex | failed to induce either ternary complex |  |  |  |  |  |  | 
3 | C=CCO/N=C1/C[C@@H]([C@H](C)C[C@@H]2CC[C@@H](O)[C@H](OC)C2)OC(=O)[C@@H]2CCCCN2C(=O)C(=O)[C@]2(O)O[C@@H](CC[C@H]2C)C[C@H](OC)/C(C)=C/C=C/C=C/[C@@H](C)C[C@@H](C)C(=O)[C@H](OC)[C@H](O)/C(C)=C/[C@H]1C [Rapa*-9Z] | < 0.1 ×10⁻⁶ cm/s | 0.4 ×10⁻⁶ cm/s | 0.014 ×10⁻⁶ cm/s |  |  |  |  |  |  |  |  | 
4 | CO[C@H]1C[C@@H]2CC[C@@H](C)[C@@](O)(O2)C(=O)C(=O)N2CCCC[C@H]2C(=O)O[C@H]([C@H](C)C[C@@H]2CC[C@@H](O)[C@H](OC)C2)CC(=O)[C@H](C)/C=C(\C)[C@@H](O)[C@@H](OC)C(=O)[C@H](C)C[C@H](C)/C=C/C=C/C=C/1C [rapamycin, reference compound] | 0.8 ×10⁻⁶ cm/s | 2.3 ×10⁻⁶ cm/s | 0.209 ×10⁻⁶ cm/s |  |  | inhibited mutant and wild-type cells equally | conferred resistance to rapamycin | rescued full sensitivity | retained activity, albeit reduced, in the mutant strains | profound inhibition of larval development | 1 µM | slightly selective toward the wild-type complex
